For one experiment, the system named is K562. The experiment in a line: IC50 proliferation assay (Alamar Blue, 72 h). Type of experiment: cell-based. As to the method:
(§1) IC50 proliferation assay—Cell lines and primary cells were seeded into 96-well plates the afternoon prior to treatment. Approximately 18 hours later, compounds were semi-serially diluted in dimethyl sulfoxide (DMSO) and then growth medium, and added to cells. Plates were incubated for 72 hours prior to addition of Alamar Blue (Life Technologies, Carlsbad, CA). Plates were read after 4 additional hours of incubation at 37° C. using a Bio-Tek Synergy HT plate reader (Bio-Tek, Winooski, VT). Data was analyzed and graphed using GraphPad Prism Software (Graphpad, La Jolla. CA).
(§2) IC50 (proliferation inhibition) against leukemia cell lines MV4-11 and K562. […] MiaPaca-2 (Pancreatic cell line), HLY-1 (Lymphoma cell line), MV4-11 (AML, cell line) and K562 (CML cell line).
(In general: The colour change of resazurin is a common sign of viable cells or microbes.)

Experiment [1] has as its system MV4-11. In words: IC50 proliferation assay (Alamar Blue, 72 h). Type of experiment: cell-based. Particulars: read-out: IC50 (proliferation inhibition) Cell line - MV4-11. As to the method: as §1, §2
The target of a further experiment is FLT3 (Homo sapiens (Human), UniProt P36888). The experiment in a line: Reaction Biology HotSpot kinase assay. As to conditions: 500 nM compound; for inhibition at 0.5 µM: read-out: % inhibition of FLT3 activity. Type of experiment: biochemical. As to the method:
(§3) The Reaction Biology Corporation (www.reactionbiology.com, Malvern, PA) HotSpot assay platform was used to measure kinase/inhibitor interactions exactly as previously described. Kinase and substrate were mixed in a buffer containing 20 mM HEPES pH 7.5, 10 mM MgCl2, 1 mM EGTA, 0.02% Brij35, 0.02 mg/mL BSA, 0.1 mM Na3VO4, 2 mM DTT and 1% DMSO. Single-dose of compounds (500 nM) were then added to each reaction mixture. After 20-minute incubation. ATP (Sigma) and [γ-^33P] ATP (Perkin Elmer) were added at a final total concentration of 100 μM for addition 2 hours at room temperature, followed by spotting onto P81 ion exchange cellulose chromatography paper (Whatman, Inc.). […] Percent remaining kinase activity of a vehicle (DMSO) containing kinase reaction was calculated for each kinase/inhibitor pair using Prism 5 (GraphPad).
as §3, with “1” for “DTT”, “incubation,” for “incubation.”

For experiment [2], the system named is MV4-11. The experiment in a line: Anti-proliferative effects in leukemia panel. The class given is cell-based. Particulars: for IC50: Homo sapiens, MV4-11. As to the method: Molm-14 cells were the kind gift of Dr. Mark Levis from Johns Hopkins University. […] Cell lines were grown and maintained according to ATCC recommendations.
(§4) Cell lines were seeded into 96-well plates the afternoon prior to treatment. Approximately 18 hours later, compounds were semi-serially diluted in dimethyl sulfoxide (DMSO) and then growth medium, and added to cells. Plates were incubated for 72 hours prior to addition of Alamar Blue (Life Technologies. Carlsbad, CA). Plates were read after 4 additional hours of incubation at 37° C. using a Bio-Tek Synergy HT plate reader (Bio-Tek, Winooski. VT). Data was analyzed and graphed using GraphPad Prism Software (Graphpad. La Jolla, CA).

The subject of experiment [3] is MOLM14. The experiment in a line: Anti-proliferative effects in leukemia panel. The class given is cell-based. As to conditions: for IC50: Homo sapiens, MOLM-14. As to the method: Molm-14 cells were the kind gift of Dr. Mark Levis from Johns Hopkins University. THP-1, MV4-11, K-562 and MRC-5A cells were purchased from ATCC (ATCC, Manassas, VA). All cell lines were grown in 37° C. with 5% CO2 atmosphere with RPMI 1640 (Life technologies, Carlsbad. CA) supplemented with heat-inactivated 10% (V/V) fetal bovine serum. Cell lines were grown and maintained according to ATCC recommendations.
as §4

Another experiment addresses FGFR1 (Homo sapiens (Human), UniProt P11362). In words: Reaction Biology HotSpot kinase assay. The class given is biochemical. Particulars: 500 nM compound; read-out: Percentage kinase inhibition FGFR1. As for the experimental part: as §3
as §3, with “1” for “DTT”, “incubation,” for “incubation.”

In another experiment the target is c-Src (Homo sapiens (Human), UniProt P12931). The experiment in a line: Reaction Biology HotSpot kinase assay. Particulars: 500 nM compound; read-out: Percentage kinase inhibition c-Src. The class given is biochemical. As to the method: as §3
Sequence of c-Src (P12931 whole entry, looked up): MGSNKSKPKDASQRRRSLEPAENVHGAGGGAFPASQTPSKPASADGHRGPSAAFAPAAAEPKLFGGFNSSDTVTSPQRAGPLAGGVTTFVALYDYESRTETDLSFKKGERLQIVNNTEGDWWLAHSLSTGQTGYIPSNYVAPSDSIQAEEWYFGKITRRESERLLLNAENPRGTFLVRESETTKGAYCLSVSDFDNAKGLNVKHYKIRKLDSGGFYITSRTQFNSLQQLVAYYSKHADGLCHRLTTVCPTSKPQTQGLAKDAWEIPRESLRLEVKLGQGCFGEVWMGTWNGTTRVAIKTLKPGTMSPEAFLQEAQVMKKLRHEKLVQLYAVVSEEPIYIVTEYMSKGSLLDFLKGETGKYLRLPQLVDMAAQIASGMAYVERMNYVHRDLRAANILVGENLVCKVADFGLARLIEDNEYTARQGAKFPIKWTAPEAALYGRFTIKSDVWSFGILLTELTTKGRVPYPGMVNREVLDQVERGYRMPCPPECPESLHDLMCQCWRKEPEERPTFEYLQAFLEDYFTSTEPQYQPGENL
as §3, with “1” for “DTT”, “incubation,” for “incubation.”

In another experiment the target is c-kit (Homo sapiens (Human), UniProt P10721). The experiment in a line: Reaction Biology HotSpot kinase assay. Type of experiment: biochemical. As to conditions: 500 nM compound, 100 μM radiolabeled ATP. As for the experimental part:
as §3
as §3, with “1” for “DTT”, “incubation,” for “incubation.”

Experiment [4] has as its system MOLM14. In words: IC50 determination (proliferation assay, CellTiter-Blue). Type of experiment: cell-based. As to the method: (§5) Cell lines were seeded into 96-well plates the afternoon prior to treatment. Approximately 18 hours later, compounds were diluted in dimethyl sulfoxide (DMSO) and added to cells. Plates were incubated for 72 hours and cells viability determined with CellTiter-Blue Cell Viability Assay (Promega, Madison, WI). Plates were read after 4 additional hours of incubation at 37° C. using plate reader (Bio-Tek, Winooski. VT). Data was analyzed and graphed using GraphPad Prism Software (Graphpad. La Jolla, CA). […]

The test system of experiment [5] is MV4-11. The experiment is described as above. Type of experiment: cell-based. As to the method:
as §5

A further experiment has as its target TRKC (Homo sapiens (Human), UniProt Q16288). In words: Reaction Biology HotSpot kinase assay. Type of experiment: biochemical. Particulars: 500 nM compound, 100 μM radiolabeled ATP. As for the experimental part:
as §3
as §3, with “1” for “DTT”, “incubation,” for “incubation.”

The subject of experiment [6] is MV4-11. The experiment in a line: Activity against AML cell line MV4-11 (CellTiter-Blue, 72 h). The class given is cell-based. Particulars: Homo sapiens, MV4-11, 72 h; read-out: IC50 against MV4-11/uM. As to the method: Cells were added to 96 well plates at 2000 cells per well for adherent lines and 4000 cells per well for suspension lines and kept in an incubator overnight. The following day the plates were treated with compounds to give rise to the final concentrations of; 100 μM, 10 μM, 5 μM 1 μM, 500 nM, 100 nM, 10 nM, […]. The plates were then stored in the incubator for 72 hours. On the third day the cells were assayed with 20 μL of CellTiter—Blue Cell Viability Assay per well and were incubated for 4 hours. After 4 hours' fluorescence intensity was taken on a plate reader: Excitation: 560/10 Emission: 590/10. IC50 analysis was performed on GraphPad Prism 7.

For the next experiment, the system named is MV-4-11. The experiment in a line: Proliferation inhibition at single concentration (CellTiter-Blue). The class given is cell-based. Particulars: 1 μM compound.
In a further experiment the test system is HCT116. The description is as above. Type of experiment: cell-based. Particulars: 1 μM compound.
Another experiment has as its system HeLa. Described as above. Type of experiment: cell-based. As to conditions: 1 μM compound. As for the experimental part:
(§6) Plates were then treated with compound diluted in dimethyl sulfoxide (DMSO) as well as a DMSO control the following day for 72 hours. After this time the plates were then treated with 10 μL of CellTiter-Blue Cell Viability Assay (Promega, Madison, WI) for 4 hours. Then the plates were read on a plate reader (Bio-Tek, Winooski, VT). Data was analyzed on Excel as a percent of the DMSO vehicle.
(§7) Antiproliferative activities against AML cell line, MV4-11 (a FLT3-driven cell line) and three other solid tumors (MCF7, breast, HCT116, colon and HeLa) have been investigated (Tables 6A and 6B and FIG. 10).

The next experiment relates to MCF-7. The experiment is described as above. Particulars: 1 μM compound. Type of experiment: cell-based. As to the method: as §6, §7
Setting [7] is: Homo sapiens, K562, 72 h, read-out: IC50 (proliferation inhibition) Cell line - K562.
Where [8] appears, read: Homo sapiens, K562, Table 18, read-out: Inhibition of proliferation of K562 cell lines (CML).
The mark [9] stands for this setting: read-out: Anti-proliferative effects in leukemia panel (μM) MV4-11.

Like-named read-outs stand apart in the source and are kept apart here.

The results in this text go back to patent publication US20250084039A1, “4-SUBSTITUTED AMINOISOQUINOLINE DERIVATIVES” (Purdue Research Foundation, priority 2016, published 2025).

Sequence of c-kit (P10721 26-976): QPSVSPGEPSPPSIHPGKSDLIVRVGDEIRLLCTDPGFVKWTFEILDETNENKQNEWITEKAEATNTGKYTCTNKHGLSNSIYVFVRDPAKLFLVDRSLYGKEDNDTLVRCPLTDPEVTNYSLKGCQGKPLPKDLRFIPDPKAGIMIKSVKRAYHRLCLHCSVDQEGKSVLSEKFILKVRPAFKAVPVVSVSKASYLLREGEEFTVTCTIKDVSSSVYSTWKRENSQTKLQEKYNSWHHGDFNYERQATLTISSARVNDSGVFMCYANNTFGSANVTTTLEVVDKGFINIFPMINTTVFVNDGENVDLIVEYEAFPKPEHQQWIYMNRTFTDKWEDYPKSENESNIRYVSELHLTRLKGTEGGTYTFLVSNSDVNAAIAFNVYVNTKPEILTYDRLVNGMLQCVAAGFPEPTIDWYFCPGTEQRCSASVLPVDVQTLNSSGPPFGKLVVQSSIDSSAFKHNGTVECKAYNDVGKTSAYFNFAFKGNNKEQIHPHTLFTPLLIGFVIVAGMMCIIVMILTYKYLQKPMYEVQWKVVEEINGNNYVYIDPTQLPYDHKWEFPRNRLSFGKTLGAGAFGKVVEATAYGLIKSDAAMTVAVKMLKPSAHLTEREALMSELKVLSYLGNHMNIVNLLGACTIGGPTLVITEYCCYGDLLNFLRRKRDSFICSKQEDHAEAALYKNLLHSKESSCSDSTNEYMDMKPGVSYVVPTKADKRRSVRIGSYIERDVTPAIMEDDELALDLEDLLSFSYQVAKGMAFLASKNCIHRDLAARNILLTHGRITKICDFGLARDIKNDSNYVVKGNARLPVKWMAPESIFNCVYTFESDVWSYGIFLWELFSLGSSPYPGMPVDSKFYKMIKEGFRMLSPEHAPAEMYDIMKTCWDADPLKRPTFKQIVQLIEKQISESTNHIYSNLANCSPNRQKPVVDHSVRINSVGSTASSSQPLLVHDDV
Sequence of TRKC (Q16288 32-839): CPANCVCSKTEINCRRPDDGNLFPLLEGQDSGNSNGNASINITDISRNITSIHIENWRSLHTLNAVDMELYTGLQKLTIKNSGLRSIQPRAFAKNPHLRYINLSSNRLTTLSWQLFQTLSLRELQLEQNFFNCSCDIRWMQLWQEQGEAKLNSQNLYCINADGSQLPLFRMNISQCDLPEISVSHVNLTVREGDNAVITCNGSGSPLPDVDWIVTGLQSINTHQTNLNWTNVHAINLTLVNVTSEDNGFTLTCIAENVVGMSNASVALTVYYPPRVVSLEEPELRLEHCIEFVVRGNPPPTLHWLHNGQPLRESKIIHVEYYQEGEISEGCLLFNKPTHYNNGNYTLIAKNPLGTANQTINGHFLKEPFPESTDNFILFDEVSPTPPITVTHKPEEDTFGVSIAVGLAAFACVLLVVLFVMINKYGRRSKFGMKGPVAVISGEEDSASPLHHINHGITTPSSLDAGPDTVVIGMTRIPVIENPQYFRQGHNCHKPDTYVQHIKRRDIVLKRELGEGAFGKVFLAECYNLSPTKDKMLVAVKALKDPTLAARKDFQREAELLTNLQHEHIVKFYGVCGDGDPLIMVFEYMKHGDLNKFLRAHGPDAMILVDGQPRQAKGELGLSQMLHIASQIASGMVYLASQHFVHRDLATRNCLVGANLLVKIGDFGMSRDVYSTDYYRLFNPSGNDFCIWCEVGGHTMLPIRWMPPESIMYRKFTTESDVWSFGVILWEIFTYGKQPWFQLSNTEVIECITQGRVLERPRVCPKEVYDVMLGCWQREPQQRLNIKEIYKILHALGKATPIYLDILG
Sequence of FLT3 (P36888 27-993): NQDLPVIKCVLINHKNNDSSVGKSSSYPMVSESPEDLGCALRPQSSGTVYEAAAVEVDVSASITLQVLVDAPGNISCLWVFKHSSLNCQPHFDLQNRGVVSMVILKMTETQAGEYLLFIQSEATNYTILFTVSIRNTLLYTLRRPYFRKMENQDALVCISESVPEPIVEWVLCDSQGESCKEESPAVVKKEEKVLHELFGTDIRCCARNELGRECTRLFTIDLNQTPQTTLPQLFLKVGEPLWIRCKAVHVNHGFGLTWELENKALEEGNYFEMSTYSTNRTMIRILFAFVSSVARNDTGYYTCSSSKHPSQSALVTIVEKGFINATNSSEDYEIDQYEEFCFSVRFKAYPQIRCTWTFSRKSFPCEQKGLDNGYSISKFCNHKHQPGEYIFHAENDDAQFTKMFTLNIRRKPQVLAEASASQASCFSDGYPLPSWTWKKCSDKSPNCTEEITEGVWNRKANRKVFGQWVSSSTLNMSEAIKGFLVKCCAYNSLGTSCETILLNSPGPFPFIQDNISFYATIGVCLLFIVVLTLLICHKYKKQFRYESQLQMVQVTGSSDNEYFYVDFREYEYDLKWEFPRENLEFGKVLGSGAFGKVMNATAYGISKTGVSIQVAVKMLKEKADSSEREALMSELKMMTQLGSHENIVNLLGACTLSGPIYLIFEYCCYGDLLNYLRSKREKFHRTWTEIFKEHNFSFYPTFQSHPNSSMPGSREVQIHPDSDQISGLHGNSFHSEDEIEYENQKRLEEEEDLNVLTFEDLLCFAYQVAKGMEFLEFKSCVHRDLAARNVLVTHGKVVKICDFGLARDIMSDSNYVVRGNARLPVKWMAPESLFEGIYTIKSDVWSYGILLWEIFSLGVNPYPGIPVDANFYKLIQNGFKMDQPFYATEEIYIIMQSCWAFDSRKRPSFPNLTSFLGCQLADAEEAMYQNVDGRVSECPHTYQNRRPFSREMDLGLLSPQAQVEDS
Sequence of FGFR1 (P11362 22-822): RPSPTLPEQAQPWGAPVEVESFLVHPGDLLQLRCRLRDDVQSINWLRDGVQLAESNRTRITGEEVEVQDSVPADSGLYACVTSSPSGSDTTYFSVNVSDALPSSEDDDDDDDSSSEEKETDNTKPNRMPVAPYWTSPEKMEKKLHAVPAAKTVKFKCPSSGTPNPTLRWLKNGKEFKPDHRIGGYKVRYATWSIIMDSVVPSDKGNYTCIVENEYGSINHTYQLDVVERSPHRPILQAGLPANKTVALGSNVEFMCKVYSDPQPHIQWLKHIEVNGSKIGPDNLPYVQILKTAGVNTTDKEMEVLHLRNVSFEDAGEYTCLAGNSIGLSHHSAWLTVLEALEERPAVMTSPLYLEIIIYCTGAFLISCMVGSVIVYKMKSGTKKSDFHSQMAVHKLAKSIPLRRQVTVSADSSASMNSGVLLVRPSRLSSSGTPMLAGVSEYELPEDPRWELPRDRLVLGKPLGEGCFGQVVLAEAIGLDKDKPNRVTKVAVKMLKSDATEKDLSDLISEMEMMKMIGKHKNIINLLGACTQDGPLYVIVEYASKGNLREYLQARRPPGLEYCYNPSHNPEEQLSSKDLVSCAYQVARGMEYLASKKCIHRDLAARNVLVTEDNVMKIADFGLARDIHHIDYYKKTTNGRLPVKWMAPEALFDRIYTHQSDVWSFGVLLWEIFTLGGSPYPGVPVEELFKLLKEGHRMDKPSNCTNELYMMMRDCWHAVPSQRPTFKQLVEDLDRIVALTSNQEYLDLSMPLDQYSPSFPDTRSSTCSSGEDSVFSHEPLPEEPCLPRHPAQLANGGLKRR

As for `Cc1ccc(C(=O)NCc2ccc(OCCN(C)C)cc2)cc1C#Cc1cc(N)nc2ccccc12` [HSN316, 3-((2-aminoquinolin-4-yl)ethynyl)-N-(4-(2-(dimethylamino)ethoxy)benzyl)-4-methylbenzamide], the IC50 was 759 nM with K562 (setting [7]); 913 ± 0.1 nM in the experiment on K562 (setting [8]); 759 nM with MV4-11 [1] (Homo sapiens, MV4-11, 72 h).
A word on the inhibition: it is the percentage by which the read-out fell short of the control. Consider `CC1(COc2ccc3c(c2)ncn3-c2ccc3cccc(N4CCC(N)CC4)c3n2)COC1` [Crenolanib, reference compound], for which the inhibition at 0.5 µM at FLT3 turned out to be 99%. The results for the IC50 in the experiment on MV4-11 [2] (setting [9]), in the experiment with MV4-11 [2] (read-out: anti-proliferative IC50) and in the experiment with MOLM14 [3] were 0.005 ± 0.001 µM, 0.005 µM and 0.004 µM, respectively.
Turning to `Nc1ncc(C#Cc2ccc(C3=NCCN3)cc2)c2ccccc12` [HSM1795, 4-((4-(4,5-dihydro-1H-imidazol-2-yl)phenyl)ethynyl)isoquinolin-1-amine], the IC50 in the experiment with MV4-11 [1] (Homo sapiens, MV4-11, 72 h) was 100 nM.
Consider `Cc1ccc(C(=O)Nc2ccc(CN3CCN(C)CC3)c(C(F)(F)F)c2)cc1C#Cc1c(N)ncc2c(Cl)cccc12` [HSN353, 3-((3-amino-8-chloroisoquinolin-4-yl)ethynyl)-4-methyl-N-(4-((4-methylpiperazin-1-yl)methyl)-3-(trifluoromethyl)phenyl)benzamide], for which the inhibition at 0.5 µM on FGFR1 was found to be 93%; at FLT3, 94%; on c-Src, 98%; at c-kit it was 82%. The IC50 was determined as 5 nM in the experiment with K562 (setting [7]); 5.2 ± 0.02 nM in the experiment on K562 (setting [8]); 3 nM in the experiment with MV4-11 [1] (Homo sapiens, MV4-11, 72 h); 1.97 ± 0.1 nM in the experiment on MOLM14 [4] (Homo sapiens, MOLM-14); 3.45 ± 0.04 nM with MV4-11 [5] (Homo sapiens, MV4-11).
For `N#Cc1ccc(C#Cc2c(N)ncc3ccc(Cl)cc23)cc1` [HSM1611, 4-((3-amino-6-chloroisoquinolin-4-yl)ethynyl)benzonitrile], the inhibition at 0.5 µM against TRKC was 16%; on c-kit, 63%. Further, the IC50 with MV4-11 [6] was 0.84 µM; in the experiment with MV4-11 [2] (setting [9]), greater than 5 µM; with MOLM14 [3], greater than 5 µM. Also, the “anti-proliferative activity in words, MV4-11 / AML cell lines” value in the experiment on MV4-11 [2] was “ineffective”. The “anti-proliferative activity in words, MOLM-14” value in the experiment on MOLM14 [3] is “ineffective”.
As for `Nc1ncc2ccc(Cl)cc2c1C#Cc1ccc(C2=NCCN2CCN2CCCCC2)cc1` [HSM1721], the inhibition at 0.5 µM was 52% at TRKC and 80% against c-kit. For the same molecule, the IC50 in the experiment with MV4-11 [6] was 0.015 µM; with MV4-11 [2] (setting [9]), 0.08 ± 0.02 µM; in the experiment on MOLM14 [3], 0.3 µM.
`Cc1ccc(C(=O)NCc2ccc(OCCN(C)C)cc2)cc1C#Cc1c(N)ncc2ccc(Cl)cc12` [HSN315]: the “% inhibition of FLT3 activity” value on FLT3 came to 32%. Moreover, the IC50 in the experiment with K562 (72 h, read-out: IC50 (proliferation inhibition) Cell line - K562) amounted to 203 nM; with K562 (Table 18, read-out: Inhibition of proliferation of K562 cell lines (CML)), 203 ± 0.1 nM; with MV4-11 [1] (72 h) it was 540 nM; with MOLM14 [4], 523 ± 6.4 nM; with MV4-11 [5] it was 549 ± 7.4 nM. Besides, the “Percent inhibition of proliferation MV-4-11” value in the experiment on MV-4-11 is given as 83%. Further, the “Percent inhibition of proliferation HCT116” value in the experiment on HCT116 was found to be 66%. The “Percent inhibition of proliferation HeLa” value with HeLa worked out at 100%. In addition, in the experiment on MCF-7, the “Percent inhibition of proliferation MCF-7” value is given as 100%. The “proliferation inhibition in words, MV4-11 / AML” value in the experiment on MV4-11 [5] is on record as “only moderate inhibitors”.
On to `Nc1ncc2ccc(Cl)cc2c1C#Cc1ccc(C2=NC(C3CC3)CN2)cc1` (stereo not shown) [HSM1703], for which the inhibition at 0.5 µM turned out to be 49% at TRKC and 60% against c-kit. Besides, the IC50 in the experiment on MV4-11 [2] (setting [9]) was 0.3 ± 0.2 µM; with MOLM14 [3] it was 0.1 µM.
Consider `N=C(NO)c1cccc(C#Cc2c(N)ncc3ccc(Cl)cc23)c1` [HSM1819], for which the figures for the inhibition at 0.5 µM against TRKC and on c-kit were 80% and 82%, respectively. In the experiment on MV4-11 [2], the “anti-proliferative activity in words, MV4-11 / AML cell lines” value is listed as “very potent”. Besides, the figures for the IC50 in the experiment on MV4-11 [2] (setting [9]) and in the experiment on MOLM14 [3] were 0.02 ± 0.01 µM and 0.06 µM, respectively.
As to `Cc1ccc(C(=O)Nc2ccc(CN3CCN(C)CC3)c(C(F)(F)F)c2)cc1C#Cc1c(N)ncc2ccccc12` [HSN352, 3-((3-aminoisoquinolin-4-yl)ethynyl)-4-methyl-N-(4-((4-methylpiperazin-1-yl)methyl)-3-(trifluoromethyl)phenyl)benzamide], the inhibition at 0.5 µM stood at 100% at FGFR1, 93% on FLT3, 100% on c-Src and 78% against c-kit. Moreover, the IC50 with K562 (setting [7]) is 2 nM; with K562 (setting [8]), 2.4 ± 0.06 nM; in the experiment on MV4-11 [1] (Homo sapiens, MV4-11, 72 h), 3 nM; in the experiment with MOLM14 [4] (Homo sapiens, MOLM-14), 3.01 ± 0.1 nM; with MV4-11 [5] (Homo sapiens, MV4-11), 3.09 ± 0.1 nM.
